# Assay results as given in EP0745595A1, “3-(3-Aryloxyphenyl)-1-(substituted methyl)-s-triazine-2,4,6-oxo or thiotrione herbicidal agents” (American Cyanamid Company, priority 1995, dated 1996).
# How the values were obtained:
# Format in all cases: in vivo
# IPOMOEA SPP. = assay: Postemergence herbicidal evaluation, IPOSS (Morningglory spp.)
# Method in brief: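 In this greenhouse postemergence herbicide test on Ipomoea spp. (morningglory), compounds in 50/50 acetone/water with 0.5% TWEEN®20 were sprayed at 40 psi onto seedlings about two weeks old grown in jiffy flats. After four to five weeks, injury was scored on a 0-9 scale covering stand, vigor, malformation, size, chlorosis and overall appearance versus control, with repeat tests averaged.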
# GALIUM APARINE = assay: Postemergence herbicidal evaluation, GALAP (Galium); parameters: key to GALAP rating / Herbicidal effect rating, GALAP / GALAP: 0-9 visual rating scale vs untreated control;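 also: higher means more injury with 8 approaching complete kill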
# Method in brief: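 In this postemergence greenhouse test, two-week-old Galium aparine seedlings grown in jiffy flats received a 40 psi spray of compound in acetone/water (50/50) with 0.5% TWEEN®20 surfactant. After four to five weeks, stand, vigor, malformation, size, chlorosis and overall appearance were compared with untreated controls on a 0-9 scale, averaging multiple tests.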
# [1] = test system: TRITICUM AESTIVUM, CV. APOLLO; assay: Postemergence herbicidal evaluation, TRZAWO (Wheat, Winter, CV. APOLLO);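 also: higher means more injury with 8 approaching complete kill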
# Method in brief: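 This greenhouse postemergence test applied compounds to roughly two-week-old wheat seedlings grown in jiffy flats. The spray solution was 50/50 acetone/water with 0.5% TWEEN®20, a polyoxyethylene sorbitan monolaurate, sprayed from a nozzle run at 40 psi. After four to five weeks of standard greenhouse care, injury was scored from 0 to 9 by comparing stand, vigor, malformation, size, chlorosis and overall appearance with a control. Multiple tests were averaged.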
# CHENOPODIUM ALBUM, L. [2] = assay: Preemergence herbicidal evaluation, CHEAL (Lambsquarters, Common); details: for CHEAL herbicidal rating: rated four to five weeks after treatment
# Method in brief: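 Seeds mixed with potting soil were planted on about one inch of soil in cups, then sprayed with aqueous acetone solution of test compound at about 0.125 to 0.50 kg per hectare. Plants grown under greenhouse conditions; visual rating on a 0-9 scale versus untreated control at 4-5 weeks.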
# [3] = test system: SETARIA VIRIDIS, (L) BEAU; assay: Postemergence herbicidal evaluation, SETVI (Foxtail, Green); parameters: key to SETVI rating / Herbicidal effect rating, SETVI / SETVI: 0-9 visual rating scale vs untreated control
# Method in brief: (§1)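 Ratings (0-9) reflect visual stand, vigor, malformation, size and chlorosis compared with untreated plants, assessed 4-5 weeks after postemergence spraying. Treatment was applied to roughly two-week-old seedlings at about 0.125-0.500 kg/ha in acetone/water with 0.5% Tween 20; replicate tests were averaged.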
# [4] = test system: AMBROSIA ARTEMISIIFOLIA, L.; assay: Postemergence herbicidal evaluation, AMBEL (Ragweed, Common);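 also: higher means more injury with 8 approaching complete kill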
# Method in brief: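 Postemergence herbicidal activity on AMBEL (common ragweed) was assessed on two-week-old seedlings grown in jiffy flats. Treatment solutions of 50/50 acetone/water with 0.5% TWEEN®20 surfactant were sprayed at 40 psi. After four to five weeks in the greenhouse, plants were scored 0-9 against a control for stand, vigor, malformation, size, chlorosis and overall appearance, with multiple tests averaged.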
# CHENOPODIUM ALBUM, L. [5] = assay: Postemergence herbicidal evaluation, CHEAL (Lambsquarters, Common)
# Method in brief: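 Postemergence herbicidal activity on Chenopodium album was tested by spraying two-week-old seedlings grown in jiffy flats with compound in acetone/water (50/50) plus 0.5% TWEEN®20, using a 40 psi nozzle. Four to five weeks after treatment, stand, vigor, malformation, size, chlorosis and overall appearance were scored 0-9 relative to controls, with repeat tests averaged.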
# CASSIA OBTUSIFOLIA, L. = assay: Postemergence herbicidal evaluation, CASOB (Sicklepod); parameters: key to CASOB rating / Herbicidal effect rating, CASOB / CASOB: 0-9 visual rating scale vs untreated control
# Method in brief: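 Postemergence foliar spray at approximately 0.125–0.500 kg/ha onto two-week seedlings; greenhouse hold, then 0–9 visual injury rating after 4–5 weeks.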
# [6] = test system: ABUTILON THEOPHRASTI, MEDIC.; assay: Postemergence herbicidal evaluation, ABUTH (Velvetleaf)
# Method in brief: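 This postemergence herbicide test used two-week-old velvetleaf seedlings grown in jiffy flats. Each compound was sprayed at 40 psi as a dispersion in 50/50 acetone/water with 0.5% TWEEN®20 surfactant. Plants then received routine greenhouse care. After four to five weeks, injury was scored visually on a 0-9 scale against a control, and replicate tests were averaged.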
# [7] = test system: ECHINOCHLOA CRUS-GALLI, (L) BEAU; assay: Postemergence herbicidal evaluation, ECHCG (Barnyardgrass); parameters: key to ECHCG rating / Herbicidal effect rating, ECHCG / ECHCG: 0-9 visual rating scale vs untreated control
# Method in brief: as §1
# [8] = test system: ORYZA SATIVA, L. TEBONNET; assay: Rice tolerance to post-transplant applications under flooded paddy conditions, ORYSAT (Rice, Tebonnet); details: for Herbicidal effect rating, ORYSAT: post-transplant rice, 3-4 weeks after treatment; for ORYSAT: post-transplanted rice
# Method in brief: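 Rated on a visual 0–9 scale against untreated plants 3–4 weeks after application, rice (cv. Tebonnet) tolerance was tested by applying compounds (approx. 0.5–0.063 kg/ha, acetone/water 50/50) to flooded soil three days post-transplant, water kept 1.5–3 cm deep.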
smiles,measurement,setting,value
"COC(=O)Cn1c(=O)n(C)c(=O)n(-c2cc(Oc3ccc(C(F)(F)F)cc3Cl)ccc2Cl)c1=O [Compound 39, Methyl 3-{[2-chloro-5-(2-chloro-α,α,α-trifluoro-p-tolyl)oxy]phenyl}tetrahydro-5-methyl-2,4,6-trioxo-s-triazine-1(2H)-acetate]",IPOSS,IPOMOEA SPP.; Rate 0.016 kg/ha,5.5
same,IPOSS,IPOMOEA SPP.; Rate 0.032 kg/ha,7.0
same,IPOSS,IPOMOEA SPP.; Rate 0.063 kg/ha,9.0
same,IPOSS,IPOMOEA SPP.; Rate 0.125 kg/ha,9.0
same,IPOSS rating,IPOMOEA SPP.; Rate 0.125 kg/ha,9.0
same,IPOSS,IPOMOEA SPP.; Rate 0.250 kg/ha,9.0
same,IPOSS rating,IPOMOEA SPP.; Rate 0.250 kg/ha,9.0
same,IPOSS,IPOMOEA SPP.; Rate 0.500 kg/ha,9.0
same,IPOSS rating,IPOMOEA SPP.; Rate 0.500 kg/ha,9.0
same,GALAP,GALIUM APARINE; Rate 0.016 kg/ha,7.5
same,GALAP,GALIUM APARINE; Rate 0.032 kg/ha,8.5
same,GALAP,GALIUM APARINE; Rate 0.063 kg/ha,7.0
same,GALAP,GALIUM APARINE; Rate 0.125 kg/ha,8.0
same,GALAP,GALIUM APARINE; Rate 0.250 kg/ha,9.0
same,GALAP,GALIUM APARINE; Rate 0.500 kg/ha,9.0
same,TRZAWO,[1]; Rate 0.016 kg/ha,2.8
same,TRZAWO,[1]; Rate 0.032 kg/ha,3.8
same,TRZAWO,[1]; Rate 0.063 kg/ha,4.5
same,TRZAWO,[1]; Rate 0.125 kg/ha,4.8
same,TRZAWO,[1]; Rate 0.250 kg/ha,6.0
same,TRZAWO,[1]; Rate 0.500 kg/ha,5.5
same,CHEAL,"CHENOPODIUM ALBUM, L. [2]; Rate 0.063 kg/ha",9.0
same,CHEAL,"CHENOPODIUM ALBUM, L. [2]; Rate 0.125 kg/ha",9.0
same,CHEAL herbicidal rating,"CHENOPODIUM ALBUM, L. [2]; Rate 0.125 kg/ha",9.0
same,CHEAL,"CHENOPODIUM ALBUM, L. [2]; Rate 0.250 kg/ha",9.0
same,CHEAL herbicidal rating,"CHENOPODIUM ALBUM, L. [2]; Rate 0.250 kg/ha",9.0
same,CHEAL,"CHENOPODIUM ALBUM, L. [2]; Rate 0.500 kg/ha",9.0
same,CHEAL herbicidal rating,"CHENOPODIUM ALBUM, L. [2]; Rate 0.500 kg/ha",9.0
same,SETVI,[3]; Rate 0.016 kg/ha,2.5
same,SETVI,[3]; Rate 0.032 kg/ha,4.5
same,SETVI,[3]; Rate 0.063 kg/ha,3.5
same,SETVI,[3]; Rate 0.125 kg/ha,4.5
same,SETVI,[3]; Rate 0.250 kg/ha,8.0
same,SETVI,[3]; Rate 0.500 kg/ha,9.0
same,AMBEL,[4]; Rate 0.016 kg/ha,4.5
same,AMBEL,[4]; Rate 0.032 kg/ha,6.5
same,AMBEL,[4]; Rate 0.063 kg/ha,7.5
same,AMBEL,[4]; Rate 0.125 kg/ha,8.5
same,AMBEL,[4]; Rate 0.250 kg/ha,9.0
same,AMBEL,[4]; Rate 0.500 kg/ha,9.0
same,CHEAL,"CHENOPODIUM ALBUM, L. [5]; Rate 0.016 kg/ha",6.0
same,CHEAL,"CHENOPODIUM ALBUM, L. [5]; Rate 0.032 kg/ha",8.0
same,CHEAL,"CHENOPODIUM ALBUM, L. [5]; Rate 0.063 kg/ha",9.0
same,CHEAL,"CHENOPODIUM ALBUM, L. [5]; Rate 0.125 kg/ha",9.0
same,CHEAL rating,"CHENOPODIUM ALBUM, L. [5]; Rate 0.125 kg/ha",9.0
same,CHEAL,"CHENOPODIUM ALBUM, L. [5]; Rate 0.250 kg/ha",9.0
same,CHEAL rating,"CHENOPODIUM ALBUM, L. [5]; Rate 0.250 kg/ha",9.0
same,CHEAL,"CHENOPODIUM ALBUM, L. [5]; Rate 0.500 kg/ha",9.0
same,CHEAL rating,"CHENOPODIUM ALBUM, L. [5]; Rate 0.500 kg/ha",9.0
same,CASOB,"CASSIA OBTUSIFOLIA, L.; Rate 0.016 kg/ha",6.0
same,CASOB,"CASSIA OBTUSIFOLIA, L.; Rate 0.032 kg/ha",9.0
same,CASOB,"CASSIA OBTUSIFOLIA, L.; Rate 0.063 kg/ha",9.0
same,CASOB,"CASSIA OBTUSIFOLIA, L.; Rate 0.125 kg/ha",9.0
same,CASOB rating,"CASSIA OBTUSIFOLIA, L.; Rate 0.125 kg/ha",9.0
same,CASOB,"CASSIA OBTUSIFOLIA, L.; Rate 0.250 kg/ha",9.0
same,CASOB rating,"CASSIA OBTUSIFOLIA, L.; Rate 0.250 kg/ha",9.0
same,CASOB,"CASSIA OBTUSIFOLIA, L.; Rate 0.500 kg/ha",9.0
same,CASOB rating,"CASSIA OBTUSIFOLIA, L.; Rate 0.500 kg/ha",9.0
same,ABUTH,[6]; Rate 0.016 kg/ha,7.0
same,ABUTH,[6]; Rate 0.032 kg/ha,8.5
same,ABUTH,[6]; Rate 0.063 kg/ha,9.0
same,ABUTH,[6]; Rate 0.125 kg/ha,9.0
same,ABUTH rating,[6]; Rate 0.125 kg/ha,9.0
same,ABUTH,[6]; Rate 0.250 kg/ha,9.0
same,ABUTH rating,[6]; Rate 0.250 kg/ha,9.0
same,ABUTH,[6]; Rate 0.500 kg/ha,9.0
same,ABUTH rating,[6]; Rate 0.500 kg/ha,9.0
same,ECHCG,[7]; Rate 0.016 kg/ha,1.5
same,ECHCG,[7]; Rate 0.032 kg/ha,3.0
same,ECHCG,[7]; Rate 0.063 kg/ha,1.0
same,ECHCG,[7]; Rate 0.125 kg/ha,4.5
same,ECHCG,[7]; Rate 0.250 kg/ha,7.5
same,ECHCG,[7]; Rate 0.500 kg/ha,8.0
same,"Herbicidal effect rating, ORYSAT",[8]; 0.063 kg/ha,2.5
same,"Herbicidal effect rating, ORYSAT",[8]; 0.125 kg/ha,3.5
same,"Herbicidal effect rating, ORYSAT",[8]; 0.250 kg/ha,5.0
same,"Herbicidal effect rating, ORYSAT",[8]; 0.500 kg/ha,5.3
same,ORYSAT,[8]; Rate 0.031 kg/ha,1.8
same,ORYSAT,[8]; Rate 0.063 kg/ha,2.5
same,ORYSAT,[8]; Rate 0.125 kg/ha,3.5
same,ORYSAT,[8]; Rate 0.250 kg/ha,5.0
